Assay results: US11724980B2, “Quinones having high capacity retention for use as electrolytes in aqueous redox flow batteries” (President and Fellows of Harvard College, priority 2018, dated 2023)
Where “and” joins values, the source holds several entries; their conditions need not be identical. Equal entries are not always repeated. Where two headings read alike, the source gives them in different places.

Tests used:
[1] = CV simulation as two one-electron reductions; format: physicochemical; details: 5 mM in 1 M KOH
Method: FIG. 6. Capacitance-corrected CV of 5 mM 2,6-DBEAQ in 1 M KOH (solid grey line). The dashed red line represents the simulated total current arising from two successive one-electron reductions with reduction potentials of −0.517 and −0.511 V vs. SHE, according to the procedure outlined in a previous publication.^1 Each simulated reduction has a rate constant ko=7×10^−3 cm/s and α=0.5.
A first CV experiment was performed in which 2,6-DBEAQ was dissolved in pH 14 KOH solution at a concentration of 5 mM. CV measurements were plotted in FIG. 5A and include results for the isomers of 2,6-DBEAQ.
Following our previous study on 2,6-DHAQ^17 and literature reports^1,18 on quinone electrochemistry in the absence of proton donors, we simulated the CV of 2,6-DBEAQ as representing two reversible electron transfer steps at two different potentials E1 and E2. The separation between simulated redox potentials for the first (E1) and second (E2) electron reductions for 2,6-DBEAQ is considerably narrower than the corresponding peak separation for 2,6-DHAQ^17 (6 mV vs. 60 mV).
The pH dependence of the proton-coupled electron transfer (POET) redox reaction for a generalized anthraquinone (AQ) is often visualized by the nine-membered square scheme (FIG. 7). The horizontal direction indicates electron transfer (ET), and the vertical direction indicates proton transfer (PT or protonation). Under strongly alkaline conditions, where the pH is higher than the second pKa (pKa2) of the reduced AQ (AQ^2−), no protonation of the semiquinone anion will take place, and reduction proceeds via two ET steps, from AQ to a semiquinone (AQ-^●) at E1, and from AQ-^● to AQ^2− at E2 which is typically <E1. Depending on the value of E1-E2, the mechanism of AQ reduction in alkaline conditions can either be a concerted one-step, two-electron process or two single-electron processes. […]

[2] = Unbalanced compositionally-symmetric cell cycling
Method: As a direct probe of the effect of O-alkylation of anthraquinone on its chemical stability, 2,6-DBEAQ was cycled potentiostatically in a volumetrically unbalanced compositionally-symmetric cell configuration.
Potentiostatic symmetric cell cycling was performed according to a reported procedure^8 in order to assess the temporal chemical stability of DBEAQ, independent of any variations in apparent capacity as a result of changes to membrane resistance, and in a configuration where there is negligible water or reactant crossover due to the same DBEAQ concentration being used in both electrolytes. […] 5 mL of the resulting electrolyte was used as the capacity-limiting side of a volumetrically unbalanced compositionally-symmetric cell, while the remaining 10 mL was used as the non-capacity-limiting side, i.e., with twice the nominal capacity of the capacity-limiting side. […].
The cycling stability of the DPPEAQ electrolyte was also studied by a previously published symmetric cell method.^24 Although the oxidized form of DPPEAQ is readily soluble at pH 9, proton-coupled electron transfer raises the pH of the electrolyte when it is reduced. Such pH fluctuations can produce misleading results in symmetric cell testing unless the starting pH is above the cutoff point for proton-coupled electron transfer.

physchem = format: physicochemical; details: for solubility: thermodynamic from solid
Method: Solubility limits of all DBEAQ isomers were measured in their oxidized forms by adding the potassium salt of DBEAQ (prepared by reacting DBEAQ with potassium hydroxide in water) until no further solid could be dissolved. After filtering the mixture through a PTFE 0.45 μm syringe filter, a saturated solution of DBEAQ in KOH was obtained. The saturated solution was then diluted by a known amount, and the concentration was evaluated by UV-Vis (Ocean Optics Flame-S Spectrometer Assembly) at 280 and 364 nm. […]
The solubility limit of DPPEAQ was measured in the oxidized form by adding the potassium salt of DPPEAQ (prepared by reacting DPPEAQ with potassium hydroxide in water) until no further solid could be dissolved. The mixture was adjusted to pH 9. After filtering the mixture through a PTFE 0.45 μm syringe filter, a saturated solution of DPPEAQ at pH 9 was obtained. The saturated solution was then diluted by a known amount while maintaining a pH of 9, and the concentration was evaluated by UV-Vis (Agilent Cary 60 spectrophotometer). The concentration was calculated according to a pre-calibrated absorbance-concentration curve of known concentrations of DPPEAQ at pH 9.

[3] = Cyclic voltammetry on glassy carbon electrode; format: physicochemical
Method: Glassy carbon was used as the working electrode for all three-electrode CV tests. RDE experiments were conducted using a Pine Instruments Modulated Speed Rotator AFMSRCE equipped with a 5 mm diameter glassy carbon working electrode, a Ag/AgCl reference electrode (BASi, pre-soaked in 3 M NaCl solution), and a graphite counter electrode. The electrode was rotated at a specific speed while the voltage was linearly swept from −0.4 to −0.11 V vs. Ag/AgCl (FIG. 4A). […].
A second CV experiment was performed in which 2,6-DBEAQ was dissolved in pH 14 KOH solution at a concentration of 2 mM. CV measurements were plotted in FIG. 4C. The standard equilibrium potential was determined to be −0.49 V vs. SHE. The separation between the peaks in the CV curves was 42 mV, indicating fairly rapid and reversible electrochemical reactions at the surface of the electrodes.

**Q.** What does the source list for `O=C([O-])CCCOc1ccc2c(c1)C(=O)c1ccc(OCCCC(=O)[O-])cc1C2=O.[K+].[K+]` [2,6-DBEAQ, 4,4′-((9,10-anthraquinone-2,6-diyl)dioxy)dibutyric acid]?
**A.** rate constant ko of each simulated reduction ([1]; α=0.5): 0.007 cm/s; E1-E2 separation ([1]; simulated CV): 6 mV; temporal capacity fade rate ([2]; pH 14 (1 M KOH), 0.10 M (2,6-DBEAQ also 0.65 M)): < 0.01 %/day; temporal capacity fade rate ([2]; pH 14, 0.10 and 0.65 M): < 3.0 %/year; Maximum Solubility (physchem; KOH, pH 12): 600 mM; solubility (physchem; pH 9, aqueous buffer, pH 9, read-out: solubility): < 0.035 M; solubility (physchem; pH 12, aqueous buffer, KOH, pH 12, read-out: Maximum Solubility): > 0.5 M; solubility (physchem; pH 12, aqueous buffer, pH 12 (value in brackets), read-out: Solubility (M) at pH 14 (pH 12)): 0.6 M; solubility (physchem; pH 14, aqueous buffer, KOH, pH 14, read-out: Maximum Solubility): > 1 M; solubility (physchem; pH 14, aqueous buffer, pH 14 (value outside brackets), read-out: Solubility (M) at pH 14 (pH 12)): 1.1 M; redox potential higher than that of 2,6-DHAQ [3]: ~200 mV; pH above which the potential is pH-independent ([3]; Pourbaix diagram): 11.5 and ~11.5; Pourbaix diagram slope ([3]; fit to data below pH 12): −35 mV/pH; separation between the peaks in the CV curves ([3]; pH 14 KOH, 2 mM): 42 mV; standard equilibrium potential ([3]; pH 14 KOH, 2 mM): −0.49 V vs. SHE
